In patent publication US20260335514A1, “Drug-Coated Medical Devices & Methods of Making” (Bard Peripheral Vascular, Inc., priority 2022, published 2026):
Converted amounts (≈) assume the structure as drawn. “And” between values parts separate entries of the source, which are not always exact repeats. Identical values can stand only once. Like-named read-outs stand apart in the source and are kept apart here.

Columns and labels:
[1] = system: femoral arteries of porcine model; assay: morphometry of stented arteries (Example 4); assay type: in vivo; conditions: for amount of restenosis observed (in words): 60 and 90 days
Method: (§1) In Example 4, formulations for stent drug coatings were prepared as subsequently described, followed by obtaining 7, 28, 60, and 90 days histological data from in vivo studies when implanted in femoral arteries of porcine model.
(§2) Five total formulations were used: a control of PVDF only, prepared at a concentration of 5 mg/mL in a solution of 90% acetone and 10% cyclohexane; a colchicine coating, prepared in a 5:1 PVDF: colchicine ratio with 5 mg/mL provided to 90% acetone and 10% DMF; a roflumilast coating at a 5:1 PVDF:roflumilast ratio, with […] provided to a 42.5% EtOAc, 50% acetone, and 7.5% DMF solution; a tadalafil coating prepared at 3:1 PVDF:tadalafil, provided at 5 mg/mL in a solution of 30% EtOAc, 60% acetone, and 10% DMF; and a sunitinib coating provided at 3:1 PVDF:sunitinib malate, prepared at 5 mg/mL in a solution of 60% MeOAc, 30% acetone, and 10% DMF. Coatings were provided to 5×40 mm and 6×40 mm stents. Loading concentrations were assessed prior to and after ETO (ethylene oxide) sterilization and no discernable change was noted by the process.
(§3) Histological studies were then performed at 60 and 90 days.

[2] = system: femoral arteries of porcine model; assay: histology of stented arteries (Example 4); assay type: in vivo
Method: as §1, §2, §3

[3] = system: femoral arteries of porcine model; assay: in vivo pharmacokinetics of drug coated stents (Example 4); conditions: 7 and 28 days after implantation; preliminary; FIG. 10
Method: as §1, §2
FIG. 10 sets forth some preliminary pharmacokinetic data obtained from the prepared stents at 7 and 28 days after implantation within the pigs.

solubility in PBS = assay type: physicochemical
Method: Drug coatings with crystalline forms of tyrosine kinase inhibitors were also examined. Sunitinib was again chosen as the candidate drug and crystal pamoate salts were prepared by recrystaliization in ethanol or ethanol and DMF for a hemi-pamoate.

[4] = octanol-water; cited from earlier work
[5] = cited from earlier work

SMILES	Fibrin % ([2]; 60 days)	Giant cell % ([2]; 60 days)	Inflammation Score ([2]; 60 days)	PGs/Collagen score ([2]; 60 days)	Restenosis % area ([2]; 60 days)	Fibrin % ([2]; 90 days)	Giant cell % ([2]; 90 days)	Inflammation Score ([2]; 90 days)	PGs/Collagen score ([2]; 90 days)	Restenosis % area ([2]; 90 days)	solubility in PBS (solubility in PBS)	also measured
COc1cc2c(c(OC)c1OC)-c1ccc(OC)c(=O)cc1[C@@H](NC(C)=O)CC2 [Colchicine, colchicine]												% Stenosis ([1]; pig, in vivo): 67.45% and 81.83%; Medial Area ([1]; pig, in vivo): 1.22; percentage of stenosis (in words) ([1]; pig, in vivo): seemingly accelerated amount of stenosis; Inflammation Score ([2]; pig, in vivo): 3.06; Restenosis % area ([2]; pig, in vivo): 67.45% and 81.83%
O=C(Nc1c(Cl)cncc1Cl)c1ccc(OC(F)F)c(OCC2CC2)c1 [Roflumilast, roflumilast]	16.65%	0.49%	0.69	0.75	40.45%	1.0%	0.0%	0.56	1.44	30.69%		pharmacokinetic data versus target (in words) [3]: expected target ranges
CCN(CC)CCNC(=O)c1c(C)[nH]c(/C=C2\C(=O)Nc3ccc(F)cc32)c1C [Sunitinib as a free base, sunitinib]											26.4 µM (≈ 10.5 µg/mL)	
CCN(CC)CCNC(=O)c1c(C)[nH]c(/C=C2\C(=O)Nc3ccc(F)cc32)c1C [Sunitinib, sunitinib]	33.17%	4.14%	1.19	1.06	33.76%	1.0%	2.03%	0.25	1.31	30.77%		amount of restenosis observed (in words) [1]: improvements in the amount of restenosis observed; percentage of stenosis (in words) ([1]; 60 days): similar
CN1CC(=O)N2[C@H](c3ccc4c(c3)OCO4)c3[nH]c4ccccc4c3C[C@@H]2C1=O [Tadalafil, tadalafil]	26.69%	7.26%	1.19	1.44	35.38%	1.31%	30.12%	1.94	1.38	27.4%		amount of restenosis observed (in words) [1]: improvements in the amount of restenosis observed; percentage of stenosis (in words) ([1]; 60 days): similar; pharmacokinetic data versus target (in words) [3]: lower than expected
CCN(CC)CCNC(=O)c1c(C)[nH]c(/C=C2\C(=O)Nc3ccc(F)cc32)c1C [hemi-pamoate]											6.02 µM (≈ 2.4 µg/mL)	
CC(=O)O[C@H]1C(=O)[C@@]2(C)[C@H]([C@H](OC(=O)c3ccccc3)[C@]3(O)C[C@H](OC(=O)[C@H](O)[C@@H](NC(=O)c4ccccc4)c4ccccc4)C(C)=C1C3(C)C)[C@]1(OC(C)=O)CO[C@@H]1C[C@@H]2O [paclitaxel]												log P [4]: 7.4
CCN(CC)CCNC(=O)c1c(C)[nH]c(/C=C2\C(=O)Nc3ccc(F)cc32)c1C [pamoate crystal]											9.6 µM	
CCN(CC)CCNC(=O)c1c(C)[nH]c(/C=C2\C(=O)Nc3ccc(F)cc32)c1C [sunitinib malate]												solubility in PBS (solubility in PBS; listed as malate salt): 1231 µM; water solubility [5]: about 25 mg/mL
